This note sets out measurements from patent publication US20050014722A1, “Process for preparing n-acylated lysophosphatidylcholine and pharmaceutical composition for treatment of metabolic bone disease comprising said compounds” (priority 2001, published 2005).

For data set [1], the system named is differentiation of osteoclasts in co-culture of bone marrow cells and osteoblasts. In words: Osteoclast differentiation in co-culture of osteoblasts and bone marrow cells (TRAP staining). Particulars: for Inhibitory activity on osteoclast differentiation in co-culture of bone marrow cells and osteoblasts: 4 μM; for TRAP-positive osteoclast cell number: co-culture, vitamin D3 and PGE2, 6 days, control 397+36.75. The data set is classed as cell-based, ICR mice. The protocol: (§1) Primary osteoblasts, bone marrow cells and osteoclast precursor cells were cultured in α-Minimum Essential Medium (α-MEM, Gibco BRL) supplemented with 10% (v/v) fetal bovine serum (Gibco BRL), and 1× antibiotics containing penicillin/streptomycin (Gibco BRL).
Until now, osteoclast cell lines have not been established, making it difficult to study differentiation of osteoclasts. Osteoclasts originate from hematopoietic stem cells derived from bone marrow, and differentiate with the help of osteoblasts/stromal cells. For these reasons, the co-culture system of osteoblasts and bone marrow cells is used for differentiation of osteoclasts. In these Experimental Examples, a differentiation system of bone marrow cells to osteoclasts was established by co-culture of osteoblasts and bone marrow cells, and, in this system, the CHJ-0014 compound was evaluated for its inhibitory effect on differentiation of osteoclasts.
After sacrificing one-day postnatal ICR mice and disinfecting them in 70% ethanol, calvarias were collected using surgical scissors and forceps, cut into several pieces, and transferred into 3× HBSS contained in a 60-mm culture dish. 0.1% collagenase (Gibco BRL) and 0.2% dispase (Boehringer Mannheim) were added to the solution, followed by incubation at 37° C. for 15 min. The treatment of calvarias with collagenase and dispase was repeated 4 more times. From the second treatment of calvarias with collagenase and dispase, the solution was centrifuged after each treatment at 1600 rpm for 5 min to harvest cells, thereby collecting osteoblasts. The collected osteoblasts were plated onto a 100-mm culture dish at a density of about 1-2×10^6 cells, and cultured in 15 ml of α-MEM supplemented with 10% FBS for 3 days. Thereafter, the proliferated osteoblasts were aliquotted into cryo-vials, and stored in liquid nitrogen until use in co-culture of osteoblasts and bone marrow cells.
(§2) After sacrificing 6-7 week ICR female mice by cervical dislocation and disinfecting their rear legs in 70% ethanol, tibias were isolated aseptically. The isolated tibias were placed into 3× HBSS (Gibco BRL), and soft tissue was completely removed. Both ends of tibias were cut, and 1×α-MEM was injected into bone marrow and then sucked up using a 1 ml syringe, collecting bone marrow cells. After sufficient suspending by pipetting, the collected bone marrow cells were centrifuged at 1600 rpm for 5 min to harvest cells. The resulting pellet (bone marrow cells and erythrocytes) was suspended in about 15-20 ml of ACK buffer (155 mM NH4Cl, 11 mM KHCO3, 0.01 mM EDTA). After incubation for 2 min, phosphate buffer was added to the cell suspension to minimize damage to bone marrow cells and lyse erythrocytes.
(§3) Thereafter, the cell suspension was centrifuged (1600 rpm, 5 min), and the resulting cell pellet was suspended in 10% FBS-containing α-MEM.
The isolated and cultured osteoblasts and bone marrow cells were co-cultured, as follows. Bone marrow cells and osteoblasts were plated onto a 48-well plate at a density of 2×10^5 cells and 2×10^4 cells per well, respectively, and co-cultured in 10% FBS-containing x-MEM. After adding vitamin D3 (10^−8 M) and PGE 2 (Prostaglandin E 2, 10^−6 M) to the culture medium, the cells were treated with the CHJ-0014 compound at various concentrations of 1.65 μM, 3.3 μM and 6.6 μM. A co-culture group not treated with the CHJ-0014 compound was used as a control. When the culture medium was exchanged with a fresh medium after incubation for 3 days, vitamin D3 (10^−8 M) and PGE 2 (10^−6 M) were again added to the medium, and the CHJ-0014 compound was also added to the medium at the same concentrations as above.
After incubation for 6 days, the culture medium was removed, and completely differentiated osteoclasts were fixed with 10% formalin for 5 min. After removing formalin, the fixed osteoclasts were treated with 0.1% Triton X-100 for 10 sec. […]

A further data set deals with peritoneal macrophages. In words: Cytotoxicity by MTT assay, peritoneal macrophages. It is filed as cell-based. Particulars: 6.6 μM, 24 hrs.
Data set [2] deals with transcription factor NF-κB. In words: NF-κB activity by EMSA (electrophoresis mobility shift assay) in osteoclasts. It is filed as cell-based. Particulars: osteoclast nuclear extract. As for the experimental part:
The CHJ-0014 compound was investigated for its inhibitory effect on the activity of the transcription factor NF-κB participating in osteoclast differentiation by performing EMSA (electrophoresis mobility shift assay). Osteoclasts were prepared according to the same method as in Experimental Experiment 3, and incubated in hypotonic lysis buffer (10 mM HEPES, pH 7.9, 1.5 mM MgCl2, 10 mM KCl, 0.5 mM DTT, 0.5 mM PMSF) on ice for 10 min. The osteoclast-containing solution was transferred into a microcentrifuge, supplemented with 0.1% NP40, and incubated for 15 min with occasional agitation. After centrifugation (4,000 rpm, 15 min), the resulting cell pellet was suspended in 15 μl of high salt buffer (20 mM HEPES, pH 7.9, 420 mM NaCl, 25% glycerol, 1.5 mM MgCl2, 0.2 mM EDTA, 0.5 mM PMSF, 0.5 mM DTT), and placed onto ice for 20 min. 75 μl of storage buffer (20 mM HEPES, pH 7.9, 100 mM NaCl, 20% glycerol, 0.2 mM EDTA, 0.5 mM PMSF, 0.5 mM DTT) was added to the cell suspension, and incubated with agitation for 10 sec. After centrifugation (14,000 rpm, 20 min), the resulting supernatant was subjected to protein quantitative assay. Protein assay was performed using a DC Protein Assay Kit (Bio-Rad).
A NF-κB-specific oligomer (5′-AGTTGAGGGGACTTTCCCA GGC-3′, Santa Cruz) was radiolabeled using [γ-^32P]ATP and […], and used as a probe. […]
A general note: A gel shift assay detects complexes by their altered migration in electrophoresis.

Another data set concerns osteoblasts. In words: Cytotoxicity by MTT assay, osteoblasts. The data set is classed as cell-based, ICR mice. Particulars: 6.6 μM, 24 hrs. For orientation: Tetrazolium dyes change colour on reduction, which living cells bring about.
For the next data set, the system named is murine bone marrow cells. In words: Cytotoxicity by MTT assay, bone marrow cells. It is filed as cell-based. The settings on record: 6.6 μM, 24 hrs.
Data set [3] deals with differentiation of osteoclasts in culture of bone marrow cells. Description: Osteoclast differentiation in culture of bone marrow cells induced by ODF and M-CSF (TRAP staining). The settings on record: for TRAP-positive osteoclast cell number: bone marrow cells, ODF 50 ng/ml, M-CSF 30 ng/ml, control 240±44. It is filed as cell-based, ICR mice. As for the experimental part: as §1, §2, §3
In this test, to evaluate this possible scenario, only bone marrow cells were treated with a recombinant ODF protein and inhibitory activity of the CHJ-0014 compound on osteoclast differentiation was investigated in culture of only bone marrow cells. Bone marrow cells, isolated according to the same method as in Experimental Example 1, were plated onto a 48-well plate at a density of 4×10^5 cells, and cultured in 10% FBS-containing α-MEM. After adding ODF (50 ng/ml) and M-CSF (30 ng/ml) to the medium, the cells were treated with the CHJ-0014 compound at various concentrations of 0.825 μM, 1.65 μM, 3.3 μM and 6.6 μM. When the culture medium was exchanged with a fresh medium after incubation for 3 days, the cells were again treated with the identical amount of ODF, M-CSF and CHJ-0014. After incubation for 6 days, the culture medium was exchanged with a fresh medium, and the cells were further cultured for 2 more days.
Completely differentiated osteoclasts were identified by TRAP staining. TRAP staining was carried out using the Leukocyte Acid Phosphatase Kit (Sigma, Cat. No. 387-A). The culture medium was removed, and completely differentiated osteoclasts were fixed with 10% formalin for 5 min. After removing formalin, the fixed osteoclasts were treated with 0.1% Trypton X-100 for 10 sec. After removing Trypton X-100, the cells were stained with a TRAP staining solution in the kit for 5 min. After eliminating the TRAP staining solution, the cells were washed with distilled water twice, dried, and TRAP-positive osteoclasts were counted under an optical microscope (×100).

For data set [4], the system named is osteoclast precursor cells. In words: Differentiation of osteoclast precursor cells isolated from bone, ODF and M-CSF (TRAP staining). It is filed as cell-based, ICR mice. Particulars: for TRAP-positive osteoclast cell number: osteoclast precursor cells, ODF 100 ng/ml, M-CSF 30 ng/ml, day 9, control 344±43.7. As for the experimental part:
as §1
Osteoclast progenitors derived from bone marrow cells migrate eventually to bone, differentiate to osteoclast precursors therein, and further differentiate to active osteoclasts having bone resorption ability and participate in bone resorption. That is, osteoclast precursor cells present in bone are at a different differentiation stage from the active osteoclasts. Recently, a cytokine playing a critical role in osteoclast differentiation was identified to be ODF (also called OPGL or RANKL), and a recombinant ODF protein can be produced on a large scale, thereby facilitating osteoclast differentiation by primary cell culture.
Osteoclast precursor cells were isolated from […]. After sacrificing 5-6 week ICR female mice by cervical dislocation and disinfecting their rear legs in 70% ethanol, tibias and femurs were isolated aseptically. After removing soft tissue according to the same method as in Example 2 from the isolated tibias and femurs, 3× HBSS (Gibco BRL) was injected into bone marrow several times, thereby collecting bone marrow cells, as follows. Bone was cut into small pieces using a surgical scissor, and incubated in a collagenase solution (1 mg/ml collagenase type II, 0.05% trypsin, 4 mM EDTA, Gibco BRL) contained in a culture dish at 37° C. for 15 min. The collagenase treatment was carried out 4 more times. After being treated three times, bone pieces were further cut into a smaller size. After one more treatment with collagenase, the bone pieces were washed with 3× HBSS five times. After completely removing the enzyme solution by centrifugation, the bone pieces were suspended in pre-cooled α-MEM, and placed onto ice for 15 min. After vortexing for 1 min, an equal volume of α-MEM was added to the bone suspension, followed by incubation on ice for 15 min. The bone suspension was filtered through a sterilized mass, and the obtained cells were cultured in 10% FBS-containing α-MEM.
The isolated and cultured osteoclast precusor cells were plated onto a 48-well plate at a density of 0.5×10^6 cells. After adding ODF (100 ng/ml) and M-CSF (30 ng/ml) to the medium, the cells were treated with the CHJ-0014 compound at various concentrations of 0.825 μM, 1.65 μM, 3.3 μM and 6.6 μM. A group not treated with the CHJ-0014 compound was used as a control. When the culture medium was exchanged with a fresh medium after incubation for 3 days, the cells were again treated with the identical amount of ODF, M-CSF and CHJ-0014. On day 6 after culturing, the culture medium was exchanged with a fresh medium, according to the same method as in on day 3. On day 9, TRAP staining was carried out, and TRAP-positive osteoclasts were counted under an optical microscope (×100).

The test system of data set [5] is human embryonic kidney cell line 293T. Description: Cytotoxicity by MTT assay, 293T cells. It is filed as cell-based. Particulars: 6.6 μM, 24 hrs.

Molecules are shown by their SMILES.

On to `CCCCCCCCCCCCCCCCCC(=O)NC(CO)COP(=O)([O-])OCC[N+](C)(C)C` [CHJ-0013, N-stearoyl-O-phosphocholine-L-serine methylhydroxy], for which the “Inhibitory activity on osteoclast differentiation in co-culture of bone marrow cells and osteoblasts” value in data set [1] is on record as “inhibit osteoclast differentiation”.

Take `CCCCCCCCCCCCCCCCCC(=O)NC(CO)COP(=O)(O)OCC[N+](C)(C)C` [CHJ-0014, N-stearoyl-O-phosphocholine-D-serine methylhydroxy]: the “Cytotoxicity (MTT)” value (in the data set on peritoneal macrophages; with osteoblasts; in the data set with murine bone marrow cells; in data set [5]) was “did not show cytotoxicity” each time. The “Effect on activation of the transcription factor NF-κB by osteoclast differentiation factor (ODF)” value in data set [2] was “suppress activation of the transcription factor NF-κB”. Besides, the “TRAP-positive osteoclast cell number” value is given as 185±12.9 in data set [3] (0.825 μM); 172+9.3 in data set [3] (1.65 μM); 87+3.5 in data set [3] (3.3 μM); 36+3.6 in data set [3] (6.6 μM); 318±19.3 in data set [4] (0.825 μM); 318±50.4 in data set [4] (1.65 μM). Besides, the “TRAP-positive osteoclast cell number” value in data set [4] (3.3 μM) turned out to be 267±24; in data set [4] (6.6 μM) it was 152±29.1; in data set [1] (1.65 μM), 80±6.1; in data set [1] (3.3 μM), 46±4.7; in data set [1] (6.6 μM), 16±6.4. For the same compound, in data set [3] (0.825-6.6 μM), the “Effect on osteoclast differentiation induced by ODF in bone marrow cells” value is recorded as “inhibits osteoclast differentiation induced by ODF in bone marrow cells in a dose-dependent manner”. Besides, in data set [4] (0.825-6.6 μM), the “Effect on osteoclast differentiation during differentiation of osteoclast precursors isolated from bone” value is “inhibits osteoclast differentiation during differentiation of osteoclast precursors isolated from bone in a dose-dependent manner”. Further, the “Inhibitory activity on osteoclast differentiation in co-culture of bone marrow cells and osteoblasts” value in data set [1] is on record as “inhibit osteoclast differentiation”. Moreover, in data set [1] (1.65-6.6 μM), the “Effect on differentiation of osteoclasts in co-culture of bone marrow cells and osteoblasts” value was “inhibits differentiation of osteoclasts in co-culture of bone marrow cells and osteoblasts in a dose-dependent manner”.
